Like-named read-outs stand apart in the source and are kept apart here.
Experiments:
[1] = tested on: HMLER CD24^low/CD44^high cells; assay: Cell viability assay (CellTiter-Blue, 72 h) in HMLER breast cancer stem cell model; format: cell-based, human; details: for Selectivity: ratio of the IC50 ID2 to the IC50 HMLER; for IC50: Homo sapiens
Method: (§1) The compounds have been evaluated against a model of breast cancer stem cells (HMLER) and matching non-stem cells (namely ID2 of HIMLER CD24^high/CD4^high/low), and in MCF10A cells (normal breast cell line).
(§2) Each IC50 value was determined in biological triplicate (three independent biological experiments), and each triplicate was determined in at least technical duplicate.
HMLER cells naturally repressing E-cadherin, obtained from human mammary epithelial cells infected with a retrovirus carrying hTERT, SV40, and the oncogenic allele H-rasV12, were cultured in DMEM/F12 (Gibco, 31331-028) supplemented with 10% FBS, 10 μg/mL insulin (Sigma-Aldrich, 10516), 0.5 ug/mL hydrocortisone (Sigma-Aldrich, H0888), and 0.5 ug/mL puromycin (Life Technologies, A11138-02); cells were a generous gift from Alain Puisieux (INSERM). All cells were incubated at 37° C. with 5% CO2. HMLER CD44low/high cells stained with CD24-APC and CD44-PE antibodies were sorted by FACS using an Aria Ilu (BD Biosciences) to obtain isolated CD24^low/CD44^high and CD24^high/CD44^low cell populations. HMLER CD24^low/CD44^high cells were supplemented with 10 ng/ml human epidermal growth factor (EGF, Miltenyi Biotec, 130-093-750, 100 ng/ml), while HMLER CD24^high/CD44^low cells were grown without EGF. MCF10A cells (ATCC, CRL-10317) were cultured in DMEM/F12 supplemented with 10% horse serum (Invitrogen, 16050-122), 10 μg/mL insulin, 10 ng/ml EGF, 0.5 μg/mL hydrocortisone, 100 ng/ml cholera toxin (Sigma-Aldrich, C8052), and 1× PenStrep (Invitrogen, 15070-063).
The cell viability assay was carried out by plating 1000 cells per well in 96-well plates. The cells were treated for 72 h in a range between 12 nM and 50 µM or 0.3 nM and 4 μM using serial dilutions following the manufacturer's protocol. Very briefly, the CellTiter-Blue reagent (G8081, Promega) was added to the wells after 72 h of treatment, and cells were incubated for 3 h before fluorescence intensities (λex=560/20 nm; λem=590/10 nm) were recorded using a PerkinElmer Wallac 1420 Victor2 microplate reader. The IC50 cell viability curves were plotted using the Prism 8 software for the synthesized compounds against HMLER CD24^low/CD44^high and the isogenic cell line HMLER CD24^high/CD44^low.
All derivatives were assessed for their antiproliferative activity and selectivity toward a well-established model of mesenchymal CSCs (HMLER CD24^low/CD44^high) together with their epithelial counterparts (HMLER CD24^high/CD44^low) lacking CSC properties. […] Specifically, compounds 6, 8, and 9 were identified to be particularly interesting in this context, with IC50 values of 30, 3, and 9 nM, respectively, together with their outstanding selectivities (Sls between 20.0 and 90.0).

[2] = tested on: ID2 (HMLER CD24^high/CD44^low) cells; assay: Cell viability assay (CellTiter-Blue, 72 h) in ID2 matching non-stem cells; format: cell-based; details: Homo sapiens, read-out: ID2 cancer cells (IC50, μM)
Method: as §1
Each IC50 value was determined in biological triplicate (three independent biological experiments), and each triplicate was determined in at least technical duplicate. […]
(§3) The cell viability assay was carried out by plating 1000 cells per well in 96-well plates. […] Very briefly, the CellTiter-Blue reagent (G8081, Promega) was added to the wells after 72 h of treatment, and cells were incubated for 3 h before fluorescence intensities (λex=560/20 nm; λem=590/10 nm) were recorded using a PerkinElmer Wallac 1420 Victor2 microplate reader. […]
All derivatives were assessed for their antiproliferative activity and selectivity toward a well-established model of mesenchymal CSCs (HMLER CD24^low/CD44^high) together with their epithelial counterparts (HMLER CD24^high/CD44^low) lacking CSC properties. […]

MCF10A cells = assay: Cell viability assay (CellTiter-Blue, 72 h) in MCF10A normal breast cell line; format: cell-based; details: Homo sapiens, MCF-10A, read-out: MCF10A (IC50, μM)
Method: as §1, §2
HMLER cells naturally repressing E-cadherin, obtained from human mammary epithelial cells infected with a retrovirus carrying hTERT, SV40, and the oncogenic allele H-rasV12, were cultured in DMEM/F12 (Gibco, 31331-028) supplemented with 10% FBS, 10 μg/mL insulin (Sigma-Aldrich, 10516), 0.5 ug/mL hydrocortisone (Sigma-Aldrich, H0888), and 0.5 ug/mL puromycin (Life Technologies, A11138-02); cells were a generous gift from Alain Puisieux (INSERM). All cells were incubated at 37° C. with 5% CO2. […]
as §3

[3] = cell viability, 72 h treatment, CellTiter-Blue, biological triplicate, read-out: HMLER cancer cells (IC50)
[4] = 72 h, read-out: HMLER cancer cells (IC50, μM)

Row | Compound | Selectivity [1] | other results
1 | CCN[C@H]1C=C[C@]2(O[C@H]([C@@H](CC)C(=O)[C@@H](C)[C@@H](O)[C@H](C)[C@@H]3O[C@@H]([C@@H](CC)C(=O)[O-])CC[C@@H]3C)[C@@H](C)C[C@H]2C)O[C@@]12CC[C@@](C)([C@H]1CC[C@](O)(CC)[C@H](C)O1)O2.[Na+] [Compound 1] | 6.1 | –
2 | CCCN[C@H]1C=C[C@]2(O[C@H]([C@@H](CC)C(=O)[C@@H](C)[C@@H](O)[C@H](C)[C@@H]3O[C@@H]([C@@H](CC)C(=O)[O-])CC[C@@H]3C)[C@@H](C)C[C@H]2C)O[C@@]12CC[C@@](C)([C@H]1CC[C@](O)(CC)[C@H](C)O1)O2.[Na+] [Compound 2] | 10.1 | –
3 | CCCCN[C@H]1C=C[C@]2(O[C@H]([C@@H](CC)C(=O)[C@@H](C)[C@@H](O)[C@H](C)[C@@H]3O[C@@H]([C@@H](CC)C(=O)[O-])CC[C@@H]3C)[C@@H](C)C[C@H]2C)O[C@@]12CC[C@@](C)([C@H]1CC[C@](O)(CC)[C@H](C)O1)O2.[Na+] [Compound 3] | 15.2 | –
4 | CC[C@@H](C(=O)[C@@H](C)[C@@H](O)[C@H](C)[C@@H]1O[C@@H]([C@@H](CC)C(=O)[O-])CC[C@@H]1C)[C@H]1O[C@]2(C=C[C@H](NCC(C)C)[C@]3(CC[C@@](C)([C@H]4CC[C@](O)(CC)[C@H](C)O4)O3)O2)[C@H](C)C[C@@H]1C.[Na+] [Compound 4] | 11.0 | –
5 | CCCCCN[C@H]1C=C[C@]2(O[C@H]([C@@H](CC)C(=O)[C@@H](C)[C@@H](O)[C@H](C)[C@@H]3O[C@@H]([C@@H](CC)C(=O)[O-])CC[C@@H]3C)[C@@H](C)C[C@H]2C)O[C@@]12CC[C@@](C)([C@H]1CC[C@](O)(CC)[C@H](C)O1)O2.[Na+] [Compound 5] | 10.8 | –
6 | CCCCCCN[C@H]1C=C[C@]2(O[C@H]([C@@H](CC)C(=O)[C@@H](C)[C@@H](O)[C@H](C)[C@@H]3O[C@@H]([C@@H](CC)C(=O)[O-])CC[C@@H]3C)[C@@H](C)C[C@H]2C)O[C@@]12CC[C@@](C)([C@H]1CC[C@](O)(CC)[C@H](C)O1)O2.[Na+] [Compound 6] | 24.7 | IC50 [1, 3]: 0.03 ± 0.01 µM
7 | CCCCCCCCCCCCN[C@H]1C=C[C@]2(O[C@H]([C@@H](CC)C(=O)[C@@H](C)[C@@H](O)[C@H](C)[C@@H]3O[C@@H]([C@@H](CC)C(=O)[O-])CC[C@@H]3C)[C@@H](C)C[C@H]2C)O[C@@]12CC[C@@](C)([C@H]1CC[C@](O)(CC)[C@H](C)O1)O2.[Na+] [Compound 7] | 4.1 | –
8 | CC[C@@H](C(=O)[C@@H](C)[C@@H](O)[C@H](C)[C@@H]1O[C@@H]([C@@H](CC)C(=O)[O-])CC[C@@H]1C)[C@H]1O[C@]2(C=C[C@H](N(CC)CC)[C@]3(CC[C@@](C)([C@H]4CC[C@](O)(CC)[C@H](C)O4)O3)O2)[C@H](C)C[C@@H]1C.[Na+] [Compound 8] | 90.0 | IC50 [1, 3]: 0.003 ± 0.0005 µM
9 | CCCN(CCC)[C@H]1C=C[C@]2(O[C@H]([C@@H](CC)C(=O)[C@@H](C)[C@@H](O)[C@H](C)[C@@H]3O[C@@H]([C@@H](CC)C(=O)[O-])CC[C@@H]3C)[C@@H](C)C[C@H]2C)O[C@@]12CC[C@@](C)([C@H]1CC[C@](O)(CC)[C@H](C)O1)O2.[Na+] [Compound 9] | 20.0 | IC50 [1, 3]: 0.009 ± 0.0002 µM
10 | CCCCN(CCCC)[C@H]1C=C[C@]2(O[C@H]([C@@H](CC)C(=O)[C@@H](C)[C@@H](O)[C@H](C)[C@@H]3O[C@@H]([C@@H](CC)C(=O)[O-])CC[C@@H]3C)[C@@H](C)C[C@H]2C)O[C@@]12CC[C@@](C)([C@H]1CC[C@](O)(CC)[C@H](C)O1)O2.[Na+] [Compound 10] | 7.6 | –
11 | CCCCCN(CCCCC)[C@H]1C=C[C@]2(O[C@H]([C@@H](CC)C(=O)[C@@H](C)[C@@H](O)[C@H](C)[C@@H]3O[C@@H]([C@@H](CC)C(=O)[O-])CC[C@@H]3C)[C@@H](C)C[C@H]2C)O[C@@]12CC[C@@](C)([C@H]1CC[C@](O)(CC)[C@H](C)O1)O2.[Na+] [Compound 11] | 7.7 | –
12 | CCCCCCN(CCCCCC)[C@H]1C=C[C@]2(O[C@H]([C@@H](CC)C(=O)[C@@H](C)[C@@H](O)[C@H](C)[C@@H]3O[C@@H]([C@@H](CC)C(=O)[O-])CC[C@@H]3C)[C@@H](C)C[C@H]2C)O[C@@]12CC[C@@](C)([C@H]1CC[C@](O)(CC)[C@H](C)O1)O2.[Na+] [Compound 12] | 13.3 | –
13 | CCCCCCCCCCCCN(CCCCCCCCCCCC)[C@H]1C=C[C@]2(O[C@H]([C@@H](CC)C(=O)[C@@H](C)[C@@H](O)[C@H](C)[C@@H]3O[C@@H]([C@@H](CC)C(=O)[O-])CC[C@@H]3C)[C@@H](C)C[C@H]2C)O[C@@]12CC[C@@](C)([C@H]1CC[C@](O)(CC)[C@H](C)O1)O2.[Na+] [Compound 13] | 5.2 | –
14 | CC[C@@H](C(=O)[C@@H](C)[C@@H](O)[C@H](C)[C@@H]1O[C@@H]([C@@H](CC)C(=O)[O-])CC[C@@H]1C)[C@H]1O[C@]2(C=C[C@H](NCc3ccccc3)[C@]3(CC[C@@](C)([C@H]4CC[C@](O)(CC)[C@H](C)O4)O3)O2)[C@H](C)C[C@@H]1C.[Na+] [Compound 14] | 6.2 | –
15 | CC[C@@H](C(=O)[C@@H](C)[C@@H](O)[C@H](C)[C@@H]1O[C@@H]([C@@H](CC)C(=O)[O-])CC[C@@H]1C)[C@H]1O[C@]2(C=C[C@H](NCc3ccc(O)cc3)[C@]3(CC[C@@](C)([C@H]4CC[C@](O)(CC)[C@H](C)O4)O3)O2)[C@H](C)C[C@@H]1C.[Na+] [Compound 15] | 12.4 | –
16 | CC[C@@H](C(=O)[C@@H](C)[C@@H](O)[C@H](C)[C@@H]1O[C@@H]([C@@H](CC)C(=O)[O-])CC[C@@H]1C)[C@H]1O[C@]2(C=C[C@H](NCc3ccc(C)cc3)[C@]3(CC[C@@](C)([C@H]4CC[C@](O)(CC)[C@H](C)O4)O3)O2)[C@H](C)C[C@@H]1C.[Na+] [Compound 16] | 12.7 | –
17 | CC[C@@H](C(=O)[C@@H](C)[C@@H](O)[C@H](C)[C@@H]1O[C@@H]([C@@H](CC)C(=O)[O-])CC[C@@H]1C)[C@H]1O[C@]2(C=C[C@H](NCc3ccc(F)cc3)[C@]3(CC[C@@](C)([C@H]4CC[C@](O)(CC)[C@H](C)O4)O3)O2)[C@H](C)C[C@@H]1C.[Na+] [Compound 17] | 10.2 | –
18 | CC[C@@H](C(=O)[C@@H](C)[C@@H](O)[C@H](C)[C@@H]1O[C@@H]([C@@H](CC)C(=O)[O-])CC[C@@H]1C)[C@H]1O[C@]2(C=C[C@H](NCc3ccc(Cl)cc3)[C@]3(CC[C@@](C)([C@H]4CC[C@](O)(CC)[C@H](C)O4)O3)O2)[C@H](C)C[C@@H]1C.[Na+] [Compound 18] | 11.0 | –
19 | C#CCN(CC#C)[C@H]1C=C[C@]2(O[C@H]([C@@H](CC)C(=O)[C@@H](C)[C@@H](O)[C@H](C)[C@@H]3O[C@@H]([C@@H](CC)C(=O)O)CC[C@@H]3C)[C@@H](C)C[C@H]2C)O[C@@]12CC[C@@](C)([C@H]1CC[C@](O)(CC)[C@H](C)O1)O2 [Compound 19, C20-epi-dipropargyloaminosalinomycin] | 3.5 | IC50 [1, 4]: 2.4 µM; IC50 [2]: 8.43 µM
20 | CC[C@@H](C(=O)[C@@H](C)[C@@H](O)[C@H](C)[C@@H]1O[C@@H]([C@@H](CC)C(=O)O)CC[C@@H]1C)[C@H]1O[C@]2(C=C[C@@H](O)[C@]3(CC[C@@](C)([C@H]4CC[C@](O)(CC)[C@H](C)O4)O3)O2)[C@H](C)C[C@@H]1C [Salinomycin] | 3.1 | IC50 (MCF10A cells): 1.13 ± 0.14 µM; IC50 [1, 4]: 1.39 ± 0.1 µM; IC50 [2]: 4.36 ± 0.5 µM

From patent US20240400576A1, “NITROGEN-CONTAINING DERIVATIVES OF SALINOMYCIN, SYNTHESIS AND USES THEREOF” (Centre National de la Recherche Scientifique, priority 2021, published 2024)
